Test results as given in patent publication US20030224038A1, “Cross-linkable phosphonate-containing supramolecular complexes and their use for delivery of therapeutic and diagnostic agents” (priority 2002, published 2003).

Tests used:
[1] = TEM imaging of negatively stained dodeca-5,7-diynoyl phosphonic acid vesicles (size); assay type: physicochemical
Description: Twice the value of the CMC determined for n-dodecanephosphonic acid (2.94×10^−4 M)^4 was used to assure aggregate formation in these experiments due to the limited amount of the final product. All samples were prepared in the manner described by Schulz, supra, using solutions buffered to a pH of 5.5 with 5 mM MES.
Samples prepared in the above manner were imaged using TEM by negatively staining the samples with 1% uranyl acetate. FIG. 2 is a picture of unpolymerized vesicles of dodeca-5,7-diynoyl phosphonic acid within four days of their initial preparation. It appears from this micrograph that the aggregates are small and relatively spherical compared to the fully saturated aggregates of n-dodecanephosphonic acid prepared as described hereinbelow. The average size of these vesicles is roughly 50 nm in diameter with the sizes of individual aggregates ranging from 4 nm to over 400 nm. […] This behavior was only observed with freshly prepared aggregates prior to their exposure to light. One explanation for this behavior is that it represents an artifact of drying the sample in the presence of the metal stain used to visualize it.
FIG. 3 is a micrograph of the same sample after one week. It is noteworthy that the vesicles are still spherical though they now appear to be smaller and have a more irregular exterior surface. […] Moreover, there was no evidence of the rolled cylinders previously imaged in the fresh aggregate solutions.

[2] = Dissolution in buffered aqueous solution; assay type: physicochemical
[3] = TEM size of n-dodecanephosphonic acid aggregates, metal-free and metallated with iron salts; assay type: physicochemical; conditions: metal-free aggregates, 3×10^−4 molar in 5 mM MES
Description: (§1) An aggregate was prepared using n-dodecanephosphonic acid. Specifically, a 3×10^−4 molar (on average) solution of n-dodecanephosphonic acid was used, which was prepared by adding 17 mg dodecanephosphonic acid to 250 mL of a 5 mM solution of morpholinoethanesulfonic acid (MES) buffer solution. This solution was heated in a boiling water bath for 40-60 minutes. The solution was then cooled and allowed to sit undisturbed for 3 days (following Shulz' procedure (21)). This preparation was used to produce the desired micelles and the reported critical micelle concentration (CMC) was independently confirmed through measurement of the surface tension by means of a Wilhelmy Plate Balance (22). […] It has also been determined that these aggregates are stable over the pH range of 4-6, with minimal structural changes.
The choice of biologically compatible metal ion used to bind to the micelle exterior directly influences the size and the shape of the resulting aggregates. Iron (III) salts are preferred because they are relatively inexpensive, readily available in several simple forms and known to be biologically compatible. However, other metal ions may be used if desired, including, without limitation, Zr (IV), Mg(II), Ca(II), Co(II) and Zn(II) salts. […]

[4] = pH stability of n-dodecanephosphonic acid aggregates; assay type: physicochemical; conditions: minimal structural changes
Description: as §1

[5] = reported value, independently confirmed by surface tension measurement; cited from earlier work

Structure (SMILES)	average size of aggregates (diameter) ([1]; same sample after one week) [nm]	largest vesicles present in the sample ([1]; same sample after one week) [nm]	average size of vesicles (diameter) ([1]; unpolymerized vesicles, within four days of preparation, pH 5.5, 5 mM MES)	solubility in buffered aqueous solutions [2]	average diameter of aggregates [3]	pH range over which aggregates are stable [4]	critical micelle concentration (CMC) [5] [µM]
CCCCC#CC#CCCCC(=O)P(=O)(O)O [dodeca-5,7-diynoyl phosphonic acid, Dodeca-5,7-diynoyl phosphonic acid]	~50	≤ 100	roughly 50 nm	readily dissolves in buffered aqueous solutions to form vesicles			
CCCCCCCCCCCCP(=O)(O)O [n-dodecanephosphonic acid]					20-120 nm	4-6	294
